Reference: patent US7691601B2, “Medium for detecting and/or identifying of microorganisms” (priority 2003, dated 2010)

What was measured:
[1] = tested on: free esterases in stools; experiment: Coloration at the point of deposit of the stool on Candida detection medium; assay type: biochemical; conditions: summary in words
Method: (§1) Preparation of the detection medium: A volume of 250 ml of detection medium is prepared from a powdered medium having the following composition:
(§2) Melting is carried out at 100° C., and the medium is autoclaved at 121° C. for 15 minutes. The additives are then added to the medium: Magenta C8 (500 mg/l; B-7102, BIOSYNTH, Staad, Switzerland); X-glucoside (75 mg/l; B-7250, BIOSYNTH, Staad, Switzerland); cefsulodine (10 mg/l; C 4786, Sigma, St Quentin Fallavier, France), and also the esterase inhibitor: • ? O,O-diethyl p-nitrophenyl phosphate: 5 mg/l • ? O,O-dimethyl p-nitrophenyl phosphate: 25 mg/l or • ? O,O-di-(2-chloroethyl)-O-(3-chloro-4-methylcoumarin-7-yl)phosphate: 75 mg/l
(§3) The various selection media thus obtained are then poured into Petri dishes.
(§4) Seeding of yeast of the Candida genus: 10 μl of stools are deposited onto a Petri dish, and this stool suspension is mixed or not mixed with 10 μl of a suspension of Candida and isolated as 3 dials on a Petri dish. Various stools and various strains of Candida genus originating from the applicant's collection are used according to this protocol. The Petri dishes are incubated at 37° C. for 24 hours.
(§5) The appearance of a coloration at the point of deposit of the stool and in the Candida colonies is read according to a semi-quantitative scale: • 0=absence of coloration • 0.5=trace coloration • 1=weak coloration • 2=strong coloration.

[2] = tested on: Candida krusei; experiment: Coloration of Candida krusei colonies on detection medium; assay type: cell-based; design: key: 0=absence of coloration; 0.5=trace coloration; 1=weak coloration; 2=strong coloration; conditions: Table 4, 5 mg/l
Method: as §1, §2, §3, §4, §5

[3] = Colonies column read for stool without added strain, Candida detection medium; design: key: 0=absence of coloration; 0.5=trace coloration; 1=weak coloration; 2=strong coloration; conditions: Table 4, 5 mg/l, no strain
Method: as §1, §2, §3, §4, §5

[4] = tested on: free esterases in a stool sample; experiment: Coloration at the point of deposit of the stool on Salmonella detection medium (Magenta C8); assay type: biochemical; design: key to Deposit coloration: 0=no coloration; 0.5=trace of coloration; 1=weak coloration; 2=strong coloration; conditions: for Deposit coloration: Table 1
Method: as §1
(§6) Melting is carried out at 100° C., and the medium is autoclaved at 121° C. for 15 minutes. The additives are then added to the medium: Magenta C8 (500 mg/l; B-7102, BIOSYNTH, Staad, Switzerland); X-glucoside (75 mg/l; B-7250, BIOSYNTH, Staad, Switzerland); cefsulodine (10 mg/l; C 4786, Sigma, St Quentin Fallavier, France) and various concentrations of the inhibitor O,O-diethyl p-nitrophenyl phosphate (Paraoxon® ethyl; CAS No. 311-45-5; 36186, Riedel-de Haën, St Quentin Fallavier, France; 0; 1; 5 or 10 mg/l).
(§7) The various detection media thus obtained are then poured into Petri dishes.
(§8) Seeding of Salmonella bacteria: 10 μl of stools are deposited onto a Petri dish, this stool suspension is mixed or not mixed with 10 μl of a suspension of Salmonella (0.5 McF) and isolated as 3 dials on a Petri dish. Various […] and various Salmonella strains originating from the applicant's collection are used according to this protocol. The Petri dishes are incubated at 37° C. for 24 hours. The appearance of a coloration at the point of deposit of the stool (“deposit” column) and at the Salmonella colony (“colony” column) is read according to a semi-quantitative scale: • 0=no coloration • 0.5=trace of coloration • 1=weak coloration • 2=strong coloration The results obtained are given in Table 1.
(§9) Melting is carried out at 100° C., and the medium is autoclaved at 121° C. for 15 minutes. The additives are then added to the medium: Magenta C8 (500 mg/l; B-7102, BIOSYNTH, Staad, Switzerland); X-glucoside (75 mg/l; B-7250, BIOSYNTH, Staad, Switzerland); cefsulodine (10 mg/l; C 4786, Sigma, St Quentin Fallavier, France) and various concentrations of the inhibitor O,O-dimethyl p-nitrophenyl phosphate (Paraoxon® methyl; CAS No. 950-35-6; Riedel-de Haën, St Quentin Fallavier, France; 5, 10, 25 mg/l).
(§10) Seeding of Salmonella bacteria: The Petri dishes are inoculated, incubated and read as in Example 1.
(§11) Preparation of the detection medium: 250 ml of the medium of Example 1, in which the O,O-diethyl p-nitrophenyl phosphate is replaced with various concentrations of O,O-di-(2-chloroethyl)-O-(3-chloro-4-methylcoumarin-7-yl)phosphate (Haloxon®; CAS No. 321-55-1; R276995, Sigma, St Quentin Fallavier, France; 0; 1; 10; 100 or 1000 mg/l), are prepared according to the method of Example 1.
as §3

[5] = tested on: free esterases in stools; experiment: Coloration at the point of deposit of the stool on Candida detection medium; assay type: biochemical; design: key: 0=absence of coloration; 0.5=trace coloration; 1=weak coloration; 2=strong coloration; conditions: Table 4, 5 mg/l, no strain
Method: as §1, §2, §3, §4, §5

[6] = tested on: Salmonella Enteritidis; experiment: Coloration of Salmonella Enteritidis colonies on detection medium; assay type: cell-based; design: key: 0=no coloration; 0.5=trace of coloration; 1=weak coloration; 2=strong coloration
Method: as §1, §6, §7, §8, §9, §10, §11, §3

[7] = tested on: Salmonella Typhi; experiment: Coloration of Salmonella Typhi colonies on detection medium; assay type: cell-based; design: key: 0=no coloration; 0.5=trace of coloration; 1=weak coloration; 2=strong coloration
Method: as §1, §6, §7, §8, §9, §10, §11, §3

In the case of `CCOP(=O)(OCC)Oc1ccc([N+](=O)[O-])cc1` [O,O-diethyl p-nitrophenyl phosphate], the “Aspecific enzymatic reactions due to the presence of free enzymes” value [1] is reported as “greatly inhibited”, the Colonies coloration ([2]; stool A) is reported as 0.5 and the Colonies coloration ([2]; stool B) is reported as 0.5. For the same compound, the Colonies coloration ([3]; stool A) was 0, the Colonies coloration ([3]; stool B) was 0 and the Deposit coloration ([4]; 1 mg/l, stool A, Salmonella Enteritidis) was 0.5. For the same compound, the Deposit coloration ([4]; 1 mg/l, stool A, Salmonella Paratyphi A) was 0.5, the Deposit coloration ([4]; 1 mg/l, stool A, Salmonella Typhi) was 0.5 and the Deposit coloration ([4]; 1 mg/l, stool A, no strain) was 0.5. The Deposit coloration ([4]; 1 mg/l, stool B, Salmonella Enteritidis) was 0, the Deposit coloration ([4]; 1 mg/l, stool B, Salmonella Paratyphi A) was 0 and the Deposit coloration ([4]; 1 mg/l, stool B, Salmonella Typhi) was 0. For the same compound, the Deposit coloration ([4]; 1 mg/l, stool B, no strain) was 0, the Deposit coloration ([4]; 5 mg/l, stool A, Salmonella Enteritidis) was 0 and the Deposit coloration ([4]; 5 mg/l, stool A, Salmonella Paratyphi A) was 0. For the same compound, the Deposit coloration ([4]; 5 mg/l, stool A, Salmonella Typhi) was 0, the Deposit coloration ([4]; 5 mg/l, stool A, no strain) was 0 and the Deposit coloration ([4]; 5 mg/l, stool B, Salmonella Enteritidis) was 0. For the same compound, the Deposit coloration ([4]; 5 mg/l, stool B, Salmonella Paratyphi A) was 0, the Deposit coloration ([4]; 5 mg/l, stool B, Salmonella Typhi) was 0 and the Deposit coloration ([4]; 5 mg/l, stool B, no strain) was 0. It also gave a Deposit coloration ([4]; 10 mg/l, stool A, Salmonella Enteritidis) of 0, a Deposit coloration ([4]; 10 mg/l, stool A, Salmonella Paratyphi A) of 0 and a Deposit coloration ([4]; 10 mg/l, stool A, Salmonella Typhi) of 0. The Deposit coloration ([4]; 10 mg/l, stool A, no strain) was 0, the Deposit coloration ([4]; 10 mg/l, stool B, Salmonella Enteritidis) was 0 and the Deposit coloration ([4]; 10 mg/l, stool B, Salmonella Paratyphi A) was 0. For the same compound, the Deposit coloration ([4]; 10 mg/l, stool B, Salmonella Typhi) was 0, the Deposit coloration ([4]; 10 mg/l, stool B, no strain) was 0 and the “Aspecific enzymatic reactions due to the presence of free enzymes” value ([4]; stools, Salmonella detection medium, summary in words) was “greatly inhibited”. For the same compound, the Deposit coloration ([5]; stool A) was 0, the Deposit coloration ([5]; stool B) was 0 and the Colonies coloration ([6]; Table 1, 1 mg/l, stool A) was 2. For the same compound, the Colonies coloration ([6]; Table 1, 1 mg/l, stool B) was 2, the Colonies coloration ([6]; Table 1, 5 mg/l, stool A) was 2 and the Colonies coloration ([6]; Table 1, 5 mg/l, stool B) was 2. The Colonies coloration ([6]; Table 1, 10 mg/l, stool A) was 2, the Colonies coloration ([6]; Table 1, 10 mg/l, stool B) was 2 and the Colonies coloration ([7]; Table 1, 1 mg/l, stool A) was 1. The Colonies coloration ([7]; Table 1, 1 mg/l, stool B) was 1, the Colonies coloration ([7]; Table 1, 5 mg/l, stool A) was 1 and the Colonies coloration ([7]; Table 1, 5 mg/l, stool B) was 1. The Colonies coloration ([7]; Table 1, 10 mg/l, stool A) was 1 and the Colonies coloration ([7]; Table 1, 10 mg/l, stool B) was 1.
